The values below come from patent US8754226B2, “Piperidinyl-substituted lactams as GPR119 modulators” (Array BioPharma Inc., priority 2010, dated 2014).

In this assay the test system is modified version of the GPR119 receptor (94% identity to human receptor). The assay can be described thus: cAMP production assay (LANCE cAMP kit, TR-FRET) in HEK-293 cells. The class given is cell-based. The conditions noted are these: for cAMP production in HEK-293 cells: HEK-293 cells stably expressing modified GPR119, test compounds 0.2 nM to 10 μM, one-hour incubation at ambient temperature; for Fold over baseline: increase in cAMP relative to basal levels, agonist activity if 1.5-fold or greater. Here is the method: The assay utilized HEK-293 cells that stably express a modified version of the GPR119 receptor (94% identity to human receptor), under the control of a CMV promoter containing a tet-on element for tetracycline-inducible expression. GPR119 agonist-induced cyclic AMP (cAMP) production was measured in this cell line using the LANCE cAMP kit (Perkin Elmer, Waltham, Mass.). To generate a working stock of cells for the assay, cells were treated overnight with 1 μg/mL doxycycline at 37° C. in the presence of 5% CO2 to induce receptor expression. Cells were then harvested by enzymatic dissociation with 0.05% trypsin, resuspended in freezing medium (DMEM growth medium with 10% each of fetal bovine serum and DMSO), aliquoted and frozen at −80° C. On the day of the assay, frozen cells were thawed, washed 1× in PBS and resuspended in Hank's buffered salt solution (HBSS) containing 5 mM HEPES, 0.1% BSA and Alexa Fluor 647-conjugated anti-cAMP antibody (diluted 1:100). The cell suspension was then transferred to a Proxiplate Plus white 384-well assay plate (Perkin-Elmer) at 2000 cells/well. Test compounds at final concentrations ranging from 0.2 nM to 10 μM were added to the assay plate, followed by a one-hour incubation at ambient temperature (volume=10 μL/well). DMSO concentration was held constant at 0.5%. After incubation with test compounds, 10 μL of a detergent buffer containing a biotinylated cAMP/Europium-conjugated streptavidin complex (Europium-labeled cAMP tracer) were added to each well on the assay plate, followed by a 2-hour incubation at ambient temperature. During this incubation cAMP released from lysed cells competes with the Europium-labeled cAMP tracer for binding to the Alexa Fluor 647-conjugated antibody. […] Cellular cAMP levels were then determined by interpolation of raw signal data using a cAMP standard curve. Compounds were determined to have agonist activity if they stimulated a 1.5-fold or greater increase in cAMP relative to basal levels.
For orientation: Cyclic AMP is a second messenger, typically raised through Gs and lowered through Gi signalling.

Where a name gives a salt, the structure may show the parent alone.

Turning to `O=C1[C@@H](Nc2ccc(C(F)(F)F)cn2)CCN1C1CCN(c2cnc(Cl)cn2)CC1` [Example 23, (S)-1-(1-(5-chloropyrazin-2-yl)piperidin-4-yl)-3-(5-(trifluoromethyl)pyridin-2-ylamino)pyrrolidin-2-one], the “cAMP production in HEK-293 cells” value was 13.6 nmol and the Fold over baseline stood at 3.0.
In the same order, the values of `CCc1ccc(N2CCC(N3CCC(Nc4ccc(S(C)(=O)=O)cc4F)C3=O)CC2)nc1` (stereo not shown) [Example 24, 1-(1-(5-ethylpyridin-2-yl)piperidin-4-yl)-3-(2-fluoro-4-(methylsulfonyl)phenylamino)pyrrolidin-2-one] are 24.8 nmol and 2.9.
In the case of `CS(=O)(=O)c1ccc(NC2CCN(C3CCN(c4ccc(-c5ccccc5)cn4)CC3)C2=O)c(F)c1` (stereo not shown) [Example 25, 3-(2-fluoro-4-(methylsulfonyl)phenylamino)-1-(1-(5-phenylpyridin-2-yl)piperidin-4-yl)pyrrolidin-2-one], the “cAMP production in HEK-293 cells” value worked out at 11.6 nmol and the Fold over baseline came to 2.9.
In the same order, the values of `CCc1cnc(N2CCC(N3CCCC(Oc4cc(F)c(S(C)(=O)=O)cc4F)C3=O)CC2)nc1` (stereo not shown) [Example 26, 3-(2,5-difluoro-4-(methylsulfonyl)phenoxy)-1′-(5-ethylpyrimidin-2-yl)-1,4′-bipiperidin-2-one] are 19.1 nmol and 4.2.
For `CCc1ccc(N2CCC(N3CC[C@H](Nc4ccc(S(C)(=O)=O)cc4F)C3=O)CC2)nc1` [Example 27A, (S)-1-(1-(5-Ethylpyridin-2-yl)piperidin-4-yl)-3-(2-fluoro-4-(methylsulfonyl)phenylamino)pyrrolidin-2-one], the “cAMP production in HEK-293 cells” value is 12.9 nmol and the Fold over baseline is listed as 2.9.
Take `CCc1ccc(N2CCC(N3CC[C@@H](Nc4ccc(S(C)(=O)=O)cc4F)C3=O)CC2)nc1` [Example 27B, (R)-1-(1-(5-ethylpyridin-2-yl)piperidin-4-yl)-3-(2-fluoro-4-(methylsulfonyl)phenylamino)pyrrolidin-2-one]: the “cAMP production in HEK-293 cells” value was 7.5 nmol and the Fold over baseline came out at 2.2.
For the compound `CCc1cnc(N2CCC(N3CCC(Nc4ccc(S(C)(=O)=O)cc4F)C3=O)CC2)c(C)c1` (stereo not shown) [Example 28, 1-(1-(5-ethyl-3-methylpyridin-2-yl)piperidin-4-yl)-3-(2-fluoro-4-(methylsulfonyl)phenylamino)pyrrolidin-2-one], the “cAMP production in HEK-293 cells” value came out at 39.4 nmol and the Fold over baseline came to 4.0.
As to `CC(C)c1cnc(N2CCC(N3CC[C@H](Nc4ccc(S(C)(=O)=O)cc4F)C3=O)CC2)nc1` [Example 29, (S)-3-(2-fluoro-4-(methylsulfonyl)phenylamino)-1-(1-(5-isopropylpyrimidin-2-yl)piperidin-4-yl)pyrrolidin-2-one trifluoroacetate], the “cAMP production in HEK-293 cells” value worked out at 11.5 nmol and the Fold over baseline stood at 2.1.
For `CSc1cnc(N2CCC(N3CC[C@H](Nc4ccc(S(C)(=O)=O)cc4F)C3=O)CC2)nc1` [Example 30, (S)-3-(2-fluoro-4-(methylsulfonyl)phenylamino)-1-(1-(5-(methylthio)pyrimidin-2-yl)piperidin-4-yl)pyrrolidin-2-one], the “cAMP production in HEK-293 cells” value was found to be 6.6 nmol and the Fold over baseline was determined as 2.0.
With `CS(=O)(=O)c1ccc(N[C@H]2CCN(C3CCN(c4ncc(-c5cn[nH]c5)cn4)CC3)C2=O)c(F)c1` [Example 31, (S)-1-(1-(5-(1H-pyrazol-4-yl)pyrimidin-2-yl)piperidin-4-yl)-3-(2-fluoro-4-(methylsulfonyl)phenylamino)pyrrolidin-2-one], the “cAMP production in HEK-293 cells” value was 14.5 nmol and the Fold over baseline is recorded as 2.9.
On to `Cn1nccc1-c1cnc(N2CCC(N3CC[C@H](Nc4ccc(S(C)(=O)=O)cc4F)C3=O)CC2)nc1` [Example 32, (S)-3-(2-fluoro-4-(methylsulfonyl)phenylamino)-1-(1-(5-(1-methyl-1H-pyrazol-5-yl)pyrimidin-2-yl)piperidin-4-yl)pyrrolidin-2-one], for which the “cAMP production in HEK-293 cells” value was 10.9 nmol and the Fold over baseline is given as 2.4.
Consider `Cn1cc(-c2cnc(N3CCC(N4CC[C@H](Nc5ccc(S(C)(=O)=O)cc5F)C4=O)CC3)nc2)cn1` [Example 33, (S)-3-(2-fluoro-4-(methylsulfonyl)phenylamino)-1-(1-(5-(1-methyl-1H-pyrazol-4-yl)pyrimidin-2-yl)piperidin-4-yl)pyrrolidin-2-one], for which the “cAMP production in HEK-293 cells” value was 15.9 nmol and the Fold over baseline is recorded as 3.3.
On the same counts, the results for `CCc1cnc(N2CCC(N3CC[C@H](Nc4ccc(S(=O)(=O)CC)cc4F)C3=O)CC2)nc1` [Example 34, (S)-1-(1-(5-ethylpyrimidin-2-yl)piperidin-4-yl)-3-(4-(ethylsulfonyl)-2-fluorophenylamino)pyrrolidin-2-one] are 11.4 nmol and 2.8.
In the same order, the values of `CCc1cnc(N2CCC(N3CC[C@H](Nc4cc(C)c(S(C)(=O)=O)cc4F)C3=O)CC2)nc1` [Example 35, (S)-1-(1-(5-ethylpyrimidin-2-yl)piperidin-4-yl)-3-(2-fluoro-5-methyl-4-(methylsulfonyl)phenylamino)pyrrolidin-2-one] are 14.5 nmol and 4.1.
As to `CCc1cnc(N2CCC(N3CC[C@H](Nc4cc5c(cc4Cl)C(=O)CCO5)C3=O)CC2)nc1` [Example 36], the “cAMP production in HEK-293 cells” value was 17.4 nmol and the Fold over baseline worked out at 3.2.
In the same order, the values of `CCc1cnc(N2CCC(N3CC[C@H](N(C)c4cc(F)c(S(C)(=O)=O)cc4F)C3=O)CC2)nc1` [Example 37, (S)-3-((2,5-difluoro-4-(methylsulfonyl)phenyl)(methyl)amino)-1-(1-(5-ethylpyrimidin-2-yl)piperidin-4-yl)pyrrolidin-2-one trifluoroacetate] are 23.4 nmol and 3.4.
In the same order, the values of `CS(=O)(=O)c1ccc(O[C@@H]2C(=O)N(C3CCN(c4cnc(Cl)cn4)CC3)C[C@@H]2O)c(F)c1` [Example 39, (3S,4S)-1-(1-(5-chloropyrazin-2-yl)piperidin-4-yl)-3-(2-fluoro-4-(methylsulfonyl)phenoxy)-4-hydroxypyrrolidin-2-one] are 20.6 nmol and 3.7.
As for `CCc1cnc(N2CCC(N3CCC[C@H](Nc4ccc(S(C)(=O)=O)cc4F)C3=O)CC2)nc1` [Example 40, (S)-1′-(5-ethylpyrimidin-2-yl)-3-(2-fluoro-4-(methylsulfonyl)phenylamino)-[1,4′-bipiperidin]-2-one], the “cAMP production in HEK-293 cells” value was found to be 12.4 nmol and the Fold over baseline stood at 2.2.
On the same counts, the results for `CS(=O)(=O)c1ccc(N[C@H]2CCCN(C3CCN(c4ncc(C(F)(F)F)cn4)CC3)C2=O)c(F)c1` [Example 41, (S)-3-(2-fluoro-4-(methyl-sulfonyl)phenylamino)-1′-(5-(trifluoromethyl)pyrimidin-2-yl)-1,4′-bipiperidin-2-one] are 7.4 nmol and 1.7.
As to `CCCc1cnc(N2CCC(N3CCC[C@H](Nc4ccc(S(C)(=O)=O)cc4F)C3=O)CC2)nc1` [Example 42, (S)-3-(2-fluoro-4-(methylsulfonyl)phenylamino)-1′-(5-propylpyrimidin-2-yl)-[1,4′-bipiperidin]-2-one], the “cAMP production in HEK-293 cells” value is 5.7 nmol and the Fold over baseline is listed as 2.1.
On the same counts, the results for `Cc1cnc(N2CCC(N3CCC[C@H](Nc4ccc(S(C)(=O)=O)cc4F)C3=O)CC2)nc1` [Example 43, (S)-3-(2-fluoro-4-(methylsulfonyl)phenylamino)-1′-(5-methylpyrimidin-2-yl)-[1,4′-bipiperidin]-2-one] are 6.9 nmol and 1.7.
On to `CS(=O)(=O)c1ccc(N[C@H]2CCCN(C3CCN(c4cnc(Cl)cn4)CC3)C2=O)c(F)c1` [Example 44, (S)-1′-(5-chloropyrazin-2-yl)-3-(2-fluoro-4-(methylsulfonyl)phenylamino)-[1,4′-bipiperidin]-2-one], for which the “cAMP production in HEK-293 cells” value worked out at 20.4 nmol and the Fold over baseline is given as 4.1.
On the same counts, the results for `CCc1cnc(N2CCC(N3CCC[C@H](Nc4cc(F)c(S(C)(=O)=O)cc4F)C3=O)CC2)nc1` [Example 45, (S)-3-(2,5-difluoro-4-(methylsulfonyl)phenylamino)-1′-(5-ethylpyrimidin-2-yl)-[1,4′-bipiperidin]-2-one] are 13.3 nmol and 2.3.
